The NIST ThermoML archive (doi:10.1021/acs.jced.8b00132)
Where “and” joins values, the source holds several entries; their conditions need not be identical. Equal values may be shown once.

Settings: transient hot wire

O=C(C(F)(F)C(F)(F)F)C(F)(C(F)(F)F)C(F)(F)F [dodecafluoro-2-methylpentan-3-one]
Settings | thermal conductivity
331.38 K, 45565 kPa, Liquid | 0.06924 W/m/K
331.38 K, 45571 kPa, Liquid | 0.06916 W/m/K
331.39 K, 36560 kPa, Liquid | 0.06692 W/m/K
331.4 K, 36561 kPa, Liquid | 0.0672 W/m/K
331.51 K, 102 kPa, Gas | 0.01402 W/m/K
331.54 K, 107 kPa, Gas | 0.01383 W/m/K
331.55 K, 3950 kPa, Liquid | 0.05388 W/m/K
331.55 K, 3951 kPa, Liquid | 0.05379 W/m/K
331.56 K, 72 kPa, Gas | 0.01361 W/m/K
331.58 K, 74 kPa, Gas | 0.01363 W/m/K
331.64 K, 28068 kPa, Liquid | 0.06457 W/m/K
331.64 K, 28075 kPa, Liquid | 0.06383 W/m/K
331.67 K, 20446 kPa, Liquid | 0.06141 W/m/K
331.67 K, 20447 kPa, Liquid | 0.06118 W/m/K
331.7 K, 14109 kPa, Liquid | 0.0585 W/m/K
331.71 K, 14116 kPa, Liquid | 0.05838 W/m/K
331.75 K, 8577 kPa, Liquid | 0.05613 W/m/K
331.75 K, 69214 kPa, Liquid | 0.07577 W/m/K
331.76 K, 8578 kPa, Liquid | 0.0562 W/m/K
331.76 K, 69231 kPa, Liquid | 0.07536 W/m/K
331.77 K, 57729 kPa, Liquid | 0.0724 W/m/K
331.77 K, 57733 kPa, Liquid | 0.07259 W/m/K
331.79 K, 239 kPa, Liquid | 0.05138 W/m/K
331.79 K, 45573 kPa, Liquid | 0.06907 W/m/K
331.8 K, 242 kPa, Liquid | 0.05139 W/m/K
331.8 K, 45574 kPa, Liquid | 0.06925 W/m/K
331.81 K, 102 kPa, Gas | 0.01364 W/m/K
331.83 K, 106 kPa, Gas | 0.01386 W/m/K
331.83 K, 36555 kPa, Liquid | 0.06649 W/m/K
331.83 K, 36558 kPa, Liquid | 0.06686 W/m/K
331.84 K, 107 kPa, Liquid | 0.05166 W/m/K and 0.05159 W/m/K
331.86 K, 71 kPa, Gas | 0.01366 W/m/K
331.89 K, 74 kPa, Gas | 0.01368 W/m/K
332.07 K, 3947 kPa, Liquid | 0.05394 W/m/K
332.08 K, 3946 kPa, Liquid | 0.05395 W/m/K
332.12 K, 28065 kPa, Liquid | 0.06395 W/m/K
332.12 K, 28069 kPa, Liquid | 0.06418 W/m/K
332.14 K, 107 kPa, Gas | 0.01388 W/m/K
332.18 K, 20442 kPa, Liquid | 0.0612 W/m/K and 0.06122 W/m/K
332.19 K, 71 kPa, Gas | 0.0138 W/m/K
332.19 K, 69215 kPa, Liquid | 0.07588 W/m/K
332.19 K, 69218 kPa, Liquid | 0.07551 W/m/K
332.22 K, 57721 kPa, Liquid | 0.07263 W/m/K
332.22 K, 57724 kPa, Liquid | 0.07259 W/m/K
332.23 K, 74 kPa, Gas | 0.01373 W/m/K
332.23 K, 14110 kPa, Liquid | 0.05828 W/m/K
332.23 K, 14111 kPa, Liquid | 0.05807 W/m/K
332.27 K, 45566 kPa, Liquid | 0.06911 W/m/K
332.28 K, 45563 kPa, Liquid | 0.06904 W/m/K
332.3 K, 8573 kPa, Liquid | 0.0558 W/m/K
332.3 K, 8574 kPa, Liquid | 0.05582 W/m/K
332.32 K, 36553 kPa, Liquid | 0.06631 W/m/K
332.33 K, 36552 kPa, Liquid | 0.06642 W/m/K
332.35 K, 238 kPa, Liquid | 0.05149 W/m/K
332.35 K, 239 kPa, Liquid | 0.05131 W/m/K
332.38 K, 108 kPa, Liquid | 0.05165 W/m/K
332.39 K, 107 kPa, Liquid | 0.05161 W/m/K
332.47 K, 102 kPa, Gas | 0.01373 W/m/K
332.56 K, 71 kPa, Gas | 0.01389 W/m/K
332.59 K, 73 kPa, Gas | 0.01379 W/m/K
332.65 K, 28066 kPa, Liquid | 0.0639 W/m/K
332.66 K, 28069 kPa, Liquid | 0.06388 W/m/K
332.68 K, 3944 kPa, Liquid | 0.05341 W/m/K
332.68 K, 3949 kPa, Liquid | 0.05349 W/m/K
332.68 K, 69200 kPa, Liquid | 0.07562 W/m/K
332.69 K, 69200 kPa, Liquid | 0.07558 W/m/K
332.73 K, 20437 kPa, Liquid | 0.06118 W/m/K
332.73 K, 57710 kPa, Liquid | 0.07255 W/m/K
332.73 K, 57718 kPa, Liquid | 0.07251 W/m/K
332.74 K, 20439 kPa, Liquid | 0.06126 W/m/K
332.8 K, 45557 kPa, Liquid | 0.06917 W/m/K
332.81 K, 45558 kPa, Liquid | 0.06905 W/m/K
332.82 K, 14107 kPa, Liquid | 0.05846 W/m/K
332.83 K, 102 kPa, Gas | 0.01371 W/m/K
332.83 K, 14108 kPa, Liquid | 0.05829 W/m/K
332.85 K, 107 kPa, Gas | 0.01391 W/m/K
332.87 K, 36553 kPa, Liquid | 0.06645 W/m/K
332.87 K, 36556 kPa, Liquid | 0.06639 W/m/K
332.91 K, 8572 kPa, Liquid | 0.05573 W/m/K
332.91 K, 8573 kPa, Liquid | 0.05574 W/m/K
332.94 K, 70 kPa, Gas | 0.01377 W/m/K
332.97 K, 73 kPa, Gas | 0.01383 W/m/K
332.97 K, 230 kPa, Liquid | 0.05124 W/m/K
332.98 K, 237 kPa, Liquid | 0.05109 W/m/K
